In PubChem BioAssay AID2060501 (Molecular Pharmacology Branch, DTP, NCI, 2025):

System: 282377-053-R-J1-PDC complex spheroids, viability
Test: Anticancer human tumor 282377-053-R-J1-PDC patient-derived colon adenocarcinoma cell line growth inhibition [GQUAD]
Conditions: for IC50: curve of first compound; for viability, T/C: stronger effect = lower value; active = viability on the fitted dose curve at most 10% of control; inactive = the rest
Source text: DNA G-quadruplex Stabilizer Agents in Combinations in Complex Spheroids
A high-throughput screen of multi-cell type tumor spheroids was designed to identify active combinations of DNA G-quadruplex stabilizer agents and targeted small molecules. Complex spheroids include a stromal component modeled by human endothelial cells (HUVEC) and fibroblasts modeled by human mesenchymal stem cells (MSCs). The concentration ranges selected for each drug and investigational agent were based upon clinically achievable concentrations if the clinical Cmax of the agent was known.
Compounds. The drugs and investigational agents: pidnarulex (CX-5461; NSC782164), APTO-253 (NSC789042), BRACO-19 (NSC847499), peposertib (NSC802822), ceralasertib (NSC780249), elimusertib (NSC800525), camonsertib (NSC841442), AZD-1390 (NSC803789), olaparib (NSC753686), talazoparib (NSC767125), ART-558 (NSC835418), sotorasib (NSC818433), MRTX-1133 (NSC836407), SN-38 (NSC673596), topotecan (NSC609699), etoposide (NSC141540), doxorubicin (NSC123127), gemcitabine (NSC613327), 5-fluorouracil (NSC19893), paclitaxel (NSC125973), vemurafenib (NSC761431), panobinostat (NSC761190), R-306465 (JNJ-16241199; NSC773264), adavosertib (NSC754352), TP-3654 (NSC805149), carboplatin (NSC241240), KSQ-4279 (NSC840948), and staurosporine (NSC755774) were obtained from the National Cancer Institute (NCI) Developmental Therapeutics Program Chemical Repository (34). The FDA-approved anticancer drug set is available from the NCI Developmental Therapeutics Program. […] The stock solutions were prepared in dimethyl sulfoxide (DMSO, Sigma-Aldrich, St. Louis, MO, cat. D2650) at 800-fold the tested concentration and stored at -70 degrees C prior to their use. All drugs and investigational agents were tested over a range starting from a high concentration at or near the clinical Cmax and decreasing in half-log increments. If the clinical Cmax for an agent had not been determined, the highest concentration tested was 10 microM.
2.3 Cell Culture. All cells were maintained in an incubator at 37 degrees C and 5% CO2 with 95% humidity. The PDC lines were cultured according to standard operating procedures established by the NCI PDMR. All PDCs were thawed and cultured in Matrigel-coated flasks prepared with a working solution of 1X Ham's F-12 nutrient mix, without supplementation (Invitrogen, cat. 11765054), 100 U/mL penicillin-streptomycin (Invitrogen, cat. 15140122), and 2.5% Matrigel (Corning Inc., cat. 354248) for the first three passages. The 857933-349-R-J2-PDC line was cultured in 6C/Colon 1B media, which includes advanced DMEM/F-12 (Thermo Fisher Scientific, cat. 12634028), 10 mM HEPES (Thermo Fisher Scientific, cat. 15630080), 1X GlutaMAX supplement (Thermo Fisher Scientific, cat. 35050061), 0.1 mg/mL primocin (InvivoGen, cat. ant-pm-2), 10% defined fetal bovine serum, heat inactivated (HyClone Laboratories Inc., cat. SH30070.03HI), 50% L-WRN conditioned media (ATCC, cat. CRL-3276), 1.25 mM N-Acetyl-L-cysteine (Sigma-Aldrich, cat. A9165), 10 mM nicotinamide (Sigma-Aldrich, cat. N0636), 1X B-27 supplement (Thermo Fisher Scientific, cat. 17504044), 1X N-2 supplement (Thermo Fisher Scientific, cat. 17502048), 10 microM Y-27632 dihydrochloride (Tocris Bioscience, cat. 1254), and 50 ng/mL human EGF recombinant protein (Thermo Fisher Scientific, cat. PHG0311). The 485176-168-R4-J1-PDC line was cultured in Panc media, which includes all 6C/Colon 1B media components plus 100 ng/mL human FGF-10 (Thermo Fisher Scientific, cat. 100-26), 500 nM SB-431542 (Selleckchem, cat. S1067), and gastrin (Tocris, cat. 3006).
[…]

[1] = second compound 0.0316 µM, first compound 0.0316 µM
[2] = second compound 0.0316 µM, first compound 0.1 µM
[3] = second compound 0.0316 µM, first compound 0.316 µM
[4] = second compound 0.0316 µM, first compound 1 µM
[5] = second compound 0.0316 µM, first compound 3.16 µM
[6] = second compound 0.0316 µM, first compound 10 µM
[7] = second compound 0.1 µM, first compound 0.0316 µM
[8] = second compound 0.1 µM, first compound 0.1 µM
[9] = second compound 0.1 µM, first compound 0.316 µM
[10] = second compound 0.1 µM, first compound 1 µM
[11] = second compound 0.1 µM, first compound 3.16 µM
[12] = second compound 0.1 µM, first compound 10 µM
[13] = second compound 0.316 µM, first compound 0.0316 µM
[14] = second compound 0.316 µM, first compound 0.1 µM
[15] = second compound 0.316 µM, first compound 0.316 µM
[16] = second compound 0.316 µM, first compound 1 µM
[17] = second compound 0.316 µM, first compound 3.16 µM
[18] = second compound 0.316 µM, first compound 10 µM
[19] = second compound 1 µM, first compound 0.0316 µM
[20] = second compound 1 µM, first compound 0.1 µM
[21] = second compound 1 µM, first compound 0.316 µM
[22] = second compound 1 µM, first compound 1 µM
[23] = second compound 1 µM, first compound 3.16 µM
[24] = second compound 1 µM, first compound 10 µM
[25] = second compound 3.16 µM, first compound 0.0316 µM
[26] = second compound 3.16 µM, first compound 0.1 µM
[27] = second compound 3.16 µM, first compound 0.316 µM
[28] = second compound 3.16 µM, first compound 1 µM
[29] = second compound 3.16 µM, first compound 3.16 µM
[30] = second compound 3.16 µM, first compound 10 µM
[31] = second compound 10 µM, first compound 0.0316 µM
[32] = second compound 10 µM, first compound 0.1 µM
[33] = second compound 10 µM, first compound 0.316 µM
[34] = second compound 10 µM, first compound 1 µM
[35] = second compound 10 µM, first compound 3.16 µM
[36] = second compound 10 µM, first compound 10 µM
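Also: spheroids exposed to compounds for 7 days before readout.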
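For viability, T/C in this document: percent of vehicle DMSO control viability with 100% = untreated-like growth.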

COc1cc(C2c3cc4c(cc3C(OC3OC5COC(C)OC5C(O)C3O)C3COC(=O)C23)OCO4)cc(OC)c1O (centres undefined) + CN(C)c1ccc(Nc2c3ccc(NC(=O)CCN4CCCC4)cc3nc3cc(NC(=O)CCN4CCCC4)ccc23)cc1
inactive: viability, T/C [1] 94.2% | viability, T/C [2] 94.2% | viability, T/C [3] 86.6% | viability, T/C [4] 117% | viability, T/C [5] 86.7% | viability, T/C [6] 68.2% | viability, T/C [7] 105% | viability, T/C [8] 85.4% | viability, T/C [9] 101% | viability, T/C [10] 86% | viability, T/C [11] 75% | viability, T/C [12] 67.6% | viability, T/C [13] 108% | viability, T/C [14] 93% | viability, T/C [15] 99% | viability, T/C [16] 95.6% | viability, T/C [17] 97.7% | viability, T/C [18] 66.4% | viability, T/C [19] 97.4% | viability, T/C [20] 67.8% | viability, T/C [21] 114% | viability, T/C [22] 105% | viability, T/C [23] 89.2% | viability, T/C [24] 60.8% | viability, T/C [25] 94.7% | viability, T/C [26] 90% | viability, T/C [27] 120% | viability, T/C [28] 106% | viability, T/C [29] 86% | viability, T/C [30] 66.8% | viability, T/C [31] 90.3% | viability, T/C [32] 90.4% | viability, T/C [33] 105% | viability, T/C [34] 105% | viability, T/C [35] 90.4% | viability, T/C [36] 64.3%
> 10000 nM: IC50 (second compound 0.0316 µM) | IC50 (second compound 0.1 µM) | IC50 (second compound 0.316 µM) | IC50 (second compound 1 µM) | IC50 (second compound 3.16 µM) | IC50 (second compound 10 µM)

COc1cccc2c1C(=O)c1c(O)c3c(c(O)c1C2=O)CC(O)(C(=O)CO)CC3OC1CC(N)C(O)C(C)O1 (centres undefined) + CN(C)c1ccc(Nc2c3ccc(NC(=O)CCN4CCCC4)cc3nc3cc(NC(=O)CCN4CCCC4)ccc23)cc1
inactive: viability, T/C [1] 114% | viability, T/C [2] 99% | viability, T/C [3] 92.8% | viability, T/C [4] 62.6% | viability, T/C [5] 27.7% | viability, T/C [7] 104% | viability, T/C [8] 96.2% | viability, T/C [9] 109% | viability, T/C [10] 71.6% | viability, T/C [11] 31.1% | viability, T/C [13] 89.4% | viability, T/C [14] 110% | viability, T/C [15] 98.6% | viability, T/C [16] 73.7% | viability, T/C [17] 32.4% | viability, T/C [19] 85% | viability, T/C [20] 94.2% | viability, T/C [21] 106% | viability, T/C [22] 73.8% | viability, T/C [23] 39.5% | viability, T/C [25] 97.8% | viability, T/C [26] 88.1% | viability, T/C [27] 96.5% | viability, T/C [28] 74.2% | viability, T/C [29] 35.2% | viability, T/C [31] 97% | viability, T/C [32] 100% | viability, T/C [33] 105% | viability, T/C [34] 83.6% | viability, T/C [35] 42.9%
1530 nM: IC50 (second compound 0.0316 µM)
2580 nM: IC50 (second compound 10 µM)
1890 nM: IC50 (second compound 0.1 µM)
1950 nM: IC50 (second compound 0.316 µM)
2060 nM: IC50 (second compound 3.16 µM)
active: viability, T/C [6] 1.26% | viability, T/C [12] 1.8% | viability, T/C [18] 2.16% | viability, T/C [24] 1.89% | viability, T/C [30] 2.76% | viability, T/C [36] 4.44%
2260 nM: IC50 (second compound 1 µM)
